Results from patent US9910031B2, “Compositions and methods for modulating c-Rel-dependent cytokine production” (Synta Pharmaceuticals Corporation, priority 2003, dated 2018).

Experiments:
[1] = tested on: IL-12 p35 mRNA; assay: Northern blot of IL-12 p35 mRNA in IFN-γ/SAC-stimulated human PBMC; assay type: cell-based; conditions: hPBMC
Experimental: Northern blot analysis was performed to examine the mRNA levels of IL-12 p35 and p40. Human PBMC and the human monocyte cell line THP-1 cells were stimulated with IFN-γ/SAC in the presence or absence of Compound 1. Human PBMC were isolated by centrifugation using Ficoll-Paque (Pharmacia Biotech, Uppsala, Sweden) and prepared in RPMI medium supplemented with 10% fetal calf serum (FCS), 100 U/ml penicillin, and 100 μg/ml streptomycin, in a 96-well plate with 5×10^5 cells/well. The cells were then primed with IFN-γ (100 U/ml) and followed by 0.01% SAC or 1 μg/ml LPS, in the presence of different concentrations of Compound 2 or other compounds. The test compounds were prepared in DMSO and the final DMSO concentration was adjusted to 0.25% in all cultures, including the compound-free control. Cell-free supernatants were taken 18 h later for the measurement of cytokines. The THP-1 cells were obtained from American Type Culture Collection (Manassas, Va.) and were cultured in RPMI 1640 (ATCC, Manassas, Va.), supplemented with 10% FCS (ATCC, Manassas, Va.), and 1% penicillin/Streptomycin (Gibco-BRL, New York, N.Y.). Total RNA was isolated and subjected to Northern blot analysis using IL-12 p35 and p40 cDNA probes. We first examined the kinetics of mRNA accumulation in cultures of hPBMC and THP-1 cells primed with IFN-γ followed by SAC stimulation in the presence or absence of 1 μM Compound 1.
We conducted a dose-response study of the inhibitory effects of Compound 1 on IL-12 mRNA expression in IFN-γ/SAC-stimulated hPBMC. Because both IL-12 p35 and p40 mRNA levels were maximal at 6 h after the addition of SAC, this time point was selected for the dose-response analysis.

[2] = tested on: IL-12 p40; assay: IL-12 p40 production in human monocyte-derived dendritic cells; assay type: cell-based; conditions: up to 10 μM
Experimental: Although c-Rel has a role in the expression of both p35 and p40 in monocytes and macrophages as well as p35 in dendritic cells (DCs), p40 expression in dendritic cells is c-Rel-independent (Grumont et al. J. Exp. Med. 2001; 194:1021-1031). If Compound 2 is acting through c-Rel, this drug should inhibit both p40 and p70 production by PBMCs. However, Compound 2 should inhibit the production of p70 (through inhibition of p35) in DCs, but should not inhibit p40 in DCs. This was tested by generating monocyte-derived dendritic cells according to the following method. Human PBMC at 1×10^7 cells/ml were suspended in serum-free DMEM and incubated for 2 hrs at 37° C. under 5% CO2. The non-adherent cells then were removed by washing with PBS. The adherent cells were cultured in RPMI-1640 medium containing rhIL-4 (100 U/ml) and rhGM-CSF (1000 U/ml) for 6-7 days. The half volume fresh media and full-volume fresh cytokines were added every other day. The cells were then primed with IFN-γ (100 U/ml) and followed by 0.01% SAC or 1 μg/ml LPS, in the presence of different concentrations of Compound 2 or other compounds. The test compounds were prepared in DMSO and the final DMSO concentration was adjusted to 0.25% in all cultures, including the compound-free control. Cell-free supernatants were taken 18 h later for the measurement of cytokines.

| IC50 ([1]; Homo sapiens, PBMC, 6 h after SAC, read-out: IC50, IL-12 p35 mRNA accumulation) [nM] | SMILES | expression of p35 mRNA ([1]; 1 μM Compound 1, all sampling times) | induction of IL-12 p35 mRNA accumulation ([1]; 6 h after SAC, 3 nM) | p40 production in human DCs [2] |
| --- | --- | --- | --- | --- |
| < 1 | C(=NNc1nc(OCCc2ccccn2)nc(N2CCOCC2)n1)c1c[nH]c2ccccc12 [Compound 1, N-(1H-indol-3-ylmethylene)-N′-[4-morpholin-4-yl-6-(2-pyridin-2-yl-ethoxy)-[1,3,5]triazin-2-yl]-hydrazine] | completely inhibited | completely reversed |  |
|  | Cc1cccc(C=NNc2cc(N3CCOCC3)nc(OCCc3ccccn3)n2)c1 [Compound 2, N-(3-methyl-benzylidene)-N′-[6-morpholin-4-yl-2-(2-pyridin-2-yl-ethoxy)-pyrimidin-4-yl]-hydrazine] |  |  | no inhibition |
